# Test results from ChEMBL document CHEMBL1136542, “Discovery of N-hydroxy-2-(2-oxo-3-pyrrolidinyl)acetamides as potent and selective inhibitors of tumor necrosis factor-alpha converting enzyme (TACE)” (Bioorg Med Chem Lett, 2003).
# Key:
# [1] = biological target: 72 kDa type IV collagenase (Homo sapiens, UniProt P08253)
# Description: In vitro inhibition of Matrix metalloprotease-2
# [2] = biological target: Disintegrin and metalloproteinase domain-containing protein 17 (Homo sapiens, UniProt P78536); test: Inhibition of TNF-alpha production from LPS stimulated human whole blood.; format: functional, tissue-based
# [3] = biological target: T1, Interstitial collagenase (Homo sapiens, UniProt P03956); test: In vitro inhibition of Matrix metalloprotease-1.
# T1 sequence (P03956 whole entry): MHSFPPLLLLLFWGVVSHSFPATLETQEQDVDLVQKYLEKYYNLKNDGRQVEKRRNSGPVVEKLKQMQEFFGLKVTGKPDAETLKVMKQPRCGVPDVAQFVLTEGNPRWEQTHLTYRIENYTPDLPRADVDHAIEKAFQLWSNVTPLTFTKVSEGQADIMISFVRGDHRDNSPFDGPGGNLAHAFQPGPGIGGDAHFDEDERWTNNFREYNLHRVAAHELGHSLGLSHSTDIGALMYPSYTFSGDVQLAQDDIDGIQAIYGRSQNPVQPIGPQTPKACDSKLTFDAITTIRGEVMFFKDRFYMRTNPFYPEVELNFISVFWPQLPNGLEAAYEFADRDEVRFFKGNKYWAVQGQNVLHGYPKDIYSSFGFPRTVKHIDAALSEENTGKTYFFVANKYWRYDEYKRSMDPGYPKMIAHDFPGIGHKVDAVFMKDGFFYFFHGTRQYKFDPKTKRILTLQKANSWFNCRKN
# [4] = biological target: Disintegrin and metalloproteinase domain-containing protein 17 (Sus scrofa, UniProt O77636); test: In vitro inhibition of TNF-alpha converting enzyme.
# [5] = biological target: Matrix metalloproteinase-9 (Homo sapiens, UniProt P14780); test: In vitro inhibition of Matrix metalloprotease-9
# Chain of Matrix metalloproteinase-9 (P14780 whole entry): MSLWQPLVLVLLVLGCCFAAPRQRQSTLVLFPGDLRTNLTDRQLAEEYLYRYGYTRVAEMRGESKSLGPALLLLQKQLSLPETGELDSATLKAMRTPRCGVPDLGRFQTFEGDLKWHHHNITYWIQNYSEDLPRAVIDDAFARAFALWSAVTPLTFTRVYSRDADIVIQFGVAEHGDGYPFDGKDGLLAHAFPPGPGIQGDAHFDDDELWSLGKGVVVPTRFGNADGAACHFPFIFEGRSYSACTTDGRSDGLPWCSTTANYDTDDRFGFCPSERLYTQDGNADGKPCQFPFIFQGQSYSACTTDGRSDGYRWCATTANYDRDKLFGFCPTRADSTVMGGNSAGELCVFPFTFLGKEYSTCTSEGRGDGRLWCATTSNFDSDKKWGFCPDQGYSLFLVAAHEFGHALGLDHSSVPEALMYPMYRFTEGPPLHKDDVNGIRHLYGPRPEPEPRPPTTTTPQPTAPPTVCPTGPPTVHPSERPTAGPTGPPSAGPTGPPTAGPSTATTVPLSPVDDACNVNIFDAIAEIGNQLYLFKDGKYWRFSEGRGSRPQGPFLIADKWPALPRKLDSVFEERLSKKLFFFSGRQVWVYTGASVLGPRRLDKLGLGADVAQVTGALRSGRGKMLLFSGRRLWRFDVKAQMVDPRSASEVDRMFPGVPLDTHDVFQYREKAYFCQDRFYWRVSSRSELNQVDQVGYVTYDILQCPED
# Chain of Disintegrin and metalloproteinase domain-containing protein 17 (Sus scrofa, UniProt O77636) (O77636 whole entry, the tested form may be a part): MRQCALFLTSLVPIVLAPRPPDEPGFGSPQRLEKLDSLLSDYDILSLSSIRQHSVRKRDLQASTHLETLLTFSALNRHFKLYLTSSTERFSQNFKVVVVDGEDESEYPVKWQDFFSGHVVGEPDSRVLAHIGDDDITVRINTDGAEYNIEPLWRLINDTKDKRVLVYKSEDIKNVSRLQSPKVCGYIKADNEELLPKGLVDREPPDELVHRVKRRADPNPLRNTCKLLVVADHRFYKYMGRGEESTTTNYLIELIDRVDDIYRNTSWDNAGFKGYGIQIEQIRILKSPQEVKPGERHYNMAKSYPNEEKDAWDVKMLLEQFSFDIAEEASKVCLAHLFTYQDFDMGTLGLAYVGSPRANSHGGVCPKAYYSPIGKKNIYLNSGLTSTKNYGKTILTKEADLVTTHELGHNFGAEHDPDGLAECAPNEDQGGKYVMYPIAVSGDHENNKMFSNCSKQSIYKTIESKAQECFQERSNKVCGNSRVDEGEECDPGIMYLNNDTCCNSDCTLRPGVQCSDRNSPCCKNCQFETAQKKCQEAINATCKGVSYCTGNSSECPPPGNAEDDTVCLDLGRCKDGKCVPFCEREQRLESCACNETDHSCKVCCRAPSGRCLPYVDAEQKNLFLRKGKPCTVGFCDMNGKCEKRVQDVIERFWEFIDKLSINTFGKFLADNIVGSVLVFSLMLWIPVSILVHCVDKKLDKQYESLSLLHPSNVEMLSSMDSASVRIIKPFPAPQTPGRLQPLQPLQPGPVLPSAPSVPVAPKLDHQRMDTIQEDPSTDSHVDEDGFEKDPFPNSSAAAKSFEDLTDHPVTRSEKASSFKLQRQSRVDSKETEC
# Chain of Disintegrin and metalloproteinase domain-containing protein 17 (Homo sapiens, UniProt P78536) (P78536 whole entry, the tested form may be a part): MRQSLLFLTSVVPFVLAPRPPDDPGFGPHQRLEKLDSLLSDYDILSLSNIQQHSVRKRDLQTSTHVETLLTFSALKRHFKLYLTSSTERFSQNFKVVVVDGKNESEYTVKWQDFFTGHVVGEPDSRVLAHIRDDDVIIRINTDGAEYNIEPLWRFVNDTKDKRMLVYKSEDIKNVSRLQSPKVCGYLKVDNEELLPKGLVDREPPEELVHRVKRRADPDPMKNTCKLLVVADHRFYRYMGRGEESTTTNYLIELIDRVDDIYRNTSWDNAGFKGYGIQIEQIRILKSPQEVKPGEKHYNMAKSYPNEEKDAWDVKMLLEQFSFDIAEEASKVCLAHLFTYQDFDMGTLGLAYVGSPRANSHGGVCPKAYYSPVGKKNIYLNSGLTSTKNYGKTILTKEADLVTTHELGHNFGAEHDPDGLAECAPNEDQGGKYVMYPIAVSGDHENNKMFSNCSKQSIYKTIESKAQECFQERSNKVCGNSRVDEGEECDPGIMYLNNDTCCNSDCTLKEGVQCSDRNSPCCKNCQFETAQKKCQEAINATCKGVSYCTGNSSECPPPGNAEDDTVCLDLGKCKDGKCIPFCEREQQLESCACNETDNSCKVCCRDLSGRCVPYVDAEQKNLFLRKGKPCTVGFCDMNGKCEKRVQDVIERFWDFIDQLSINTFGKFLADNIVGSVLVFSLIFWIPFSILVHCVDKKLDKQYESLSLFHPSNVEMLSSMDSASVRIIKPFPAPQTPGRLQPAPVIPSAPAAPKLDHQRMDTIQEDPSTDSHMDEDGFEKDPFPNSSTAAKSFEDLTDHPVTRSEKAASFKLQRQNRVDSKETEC
# Chain of 72 kDa type IV collagenase (P08253 whole entry, the tested form may be a part): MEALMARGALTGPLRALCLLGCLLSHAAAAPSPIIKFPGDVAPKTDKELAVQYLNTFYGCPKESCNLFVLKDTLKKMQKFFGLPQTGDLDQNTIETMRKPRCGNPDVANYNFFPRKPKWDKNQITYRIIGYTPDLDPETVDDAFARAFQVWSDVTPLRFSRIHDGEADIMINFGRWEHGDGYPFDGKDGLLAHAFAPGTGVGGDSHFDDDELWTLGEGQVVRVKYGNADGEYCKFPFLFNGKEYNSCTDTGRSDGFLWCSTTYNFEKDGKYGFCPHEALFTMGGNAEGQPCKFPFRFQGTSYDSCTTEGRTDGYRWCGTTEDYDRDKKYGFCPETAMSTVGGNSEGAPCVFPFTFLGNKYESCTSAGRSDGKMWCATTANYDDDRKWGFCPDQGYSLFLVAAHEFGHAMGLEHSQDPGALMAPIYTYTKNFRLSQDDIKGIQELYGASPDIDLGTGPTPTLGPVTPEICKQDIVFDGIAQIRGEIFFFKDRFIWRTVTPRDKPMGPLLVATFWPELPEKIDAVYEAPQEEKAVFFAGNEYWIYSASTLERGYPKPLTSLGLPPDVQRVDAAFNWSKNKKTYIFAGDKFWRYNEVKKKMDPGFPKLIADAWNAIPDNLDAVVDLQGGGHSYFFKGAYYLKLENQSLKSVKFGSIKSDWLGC
Compound,Ki [1] [nM],IC50 [2] [nM],Ki [3] [nM],IC50 [4] [nM],Ki [5] [nM]
Cc1cc(COc2ccc(N3CC[C@H]([C@H](NC(=O)OC(C)(C)C)C(=O)NO)C3=O)cc2)cc(C)n1,> 3000,> 3000,2240,6,
CCC[C@@H](C(=O)NO)[C@H]1CCN(c2ccc(OCc3cc(C)nc4ccccc34)cc2)C1=O,> 3000,,> 5000,140,> 2000
CCC[C@H](C(=O)NO)[C@@]1(N)CCN(c2ccc(OCc3cc(C)nc4ccccc34)cc2)C1=O,> 3000,> 3000,> 5000,4,> 2000
CCC[C@@H](C(=O)NO)[C@@]1(N)CCN(c2ccc(OCc3cc(C)nc4ccccc34)cc2)C1=O,> 3000,> 10000,> 5000,405,> 2000
Cc1cc(COc2ccc(N3CC[C@H]([C@H](NC(=O)C(C)(C)C)C(=O)NO)C3=O)cc2)c2ccccc2n1,1240,4950,> 5000,< 1,> 2000
Cc1cc(COc2ccc(N3CC[C@@]([C@H](C)C(=O)NO)(N(C)C)C3=O)cc2)c2ccccc2n1,,> 3000,> 5000,12,1300
COC(=O)N[C@H](C(=O)NO)[C@H]1CCN(c2ccc(OCc3cc(C)nc4ccccc34)cc2)C1=O,482,2650,> 5000,< 1,> 2000
C[C@@H]([C@H]1CCN(c2ccc(OCc3ccccc3)cc2)C1=O)N(O)C=O,> 567,> 10000,> 5000,111,> 2000
Cc1cc(COc2ccc(N3CC[C@H]([C@@H](C)C(=O)NO)C3=O)cc2)c2ccccc2n1,> 3000,> 3000,> 5000,52,> 2000
CC(=O)N[C@H](C(=O)NO)[C@H]1CCN(c2ccc(OCc3cc(C)nc4ccccc34)cc2)C1=O,194,1560,> 5000,1,> 2000
Cc1cc(COc2ccc(N3CC[C@H]([C@H](C)C(=O)NO)C3=O)cc2)c2ccccc2n1,> 1270,1570,> 5000,1,> 2000
Cc1cc(COc2ccc(N3CC[C@H]([C@H](NC(=O)N4CCOCC4)C(=O)NO)C3=O)cc2)c2ccccc2n1,805,840,> 5000,< 1,> 2000
Cc1cc(COc2ccc(N3CC[C@H]([C@H](C)N(O)C=O)C3=O)cc2)c2ccccc2n1,> 3000,8700,> 5000,2,> 2000
Cc1cc(COc2ccc(N3CC[C@H]([C@H](N)C(=O)NO)C3=O)cc2)c2ccccc2n1,446,1700,> 5000,2,1960
Cc1cc(COc2ccc(N3CC[C@H]([C@H](O)C(=O)NO)C3=O)cc2)c2ccccc2n1,> 3000,2400,> 5000,3,> 2000

# Further lines, results first:
Ki [1] [nM],IC50 [2] [nM],Ki [3] [nM],IC50 [4] [nM],Ki [5] [nM],Compound
> 3000,> 10000,> 5000,26,> 2000,Cc1cc(COc2ccc(N3CC[C@H]([C@@H](C(=O)NO)N4CCCC4)C3=O)cc2)c2ccccc2n1
> 3000,4800,> 5000,5,> 2000,Cc1cc(COc2ccc(N3CC[C@](N)(CC(=O)NO)C3=O)cc2)c2ccccc2n1
435,9100,> 5000,1,> 2000,Cc1cc(COc2ccc(N3CC[C@H]([C@H](NC(=O)c4ccccc4)C(=O)NO)C3=O)cc2)c2ccccc2n1
> 3000,1500,> 5000,7,> 2000,Cc1cc(COc2ccc(N3CC[C@H]([C@@H](C(=O)NO)N(C)C)C3=O)cc2)c2ccccc2n1
> 3000,> 10000,> 5000,50,> 2000,Cc1cc(COc2ccc(N3CC[C@H]([C@H](N)C(=O)NO)C3=O)cc2)cc(C)n1
324,420,788,1,291,Cc1cc(COc2ccc(N3CC[C@H]([C@H](NC(=O)OC(C)(C)C)C(=O)NO)C3=O)cc2)c2ccccc2n1
> 3000,1100,> 5000,2,> 2000,Cc1cc(COc2ccc(N3CC[C@](N)([C@H](C)C(=O)NO)C3=O)cc2)c2ccccc2n1
> 305,6830,> 1630,2,> 2000,CCCCOC(=O)N[C@H](C(=O)NO)[C@H]1CCN(c2ccc(OCc3cc(C)nc4ccccc34)cc2)C1=O
